Results: publication doi:10.1101/2023.03.24.534094v2 (biorxiv, 2023)
Read-outs that look alike come from different tables or passages of the source. One block for each compound: values may come before it.

Columns and labels:
Test in all cases: biochemical
STLK3 = STLK3 (Homo sapiens, UniProt Q9UEW8)
OSR1 = OSR1 (Homo sapiens, UniProt O95747)
JNK3 = JNK3 (Homo sapiens, UniProt P53779)
CaMK4 = target: T1, CaMK4 (Homo sapiens, UniProt Q16566)
T1 sequence (Q16566 1-473): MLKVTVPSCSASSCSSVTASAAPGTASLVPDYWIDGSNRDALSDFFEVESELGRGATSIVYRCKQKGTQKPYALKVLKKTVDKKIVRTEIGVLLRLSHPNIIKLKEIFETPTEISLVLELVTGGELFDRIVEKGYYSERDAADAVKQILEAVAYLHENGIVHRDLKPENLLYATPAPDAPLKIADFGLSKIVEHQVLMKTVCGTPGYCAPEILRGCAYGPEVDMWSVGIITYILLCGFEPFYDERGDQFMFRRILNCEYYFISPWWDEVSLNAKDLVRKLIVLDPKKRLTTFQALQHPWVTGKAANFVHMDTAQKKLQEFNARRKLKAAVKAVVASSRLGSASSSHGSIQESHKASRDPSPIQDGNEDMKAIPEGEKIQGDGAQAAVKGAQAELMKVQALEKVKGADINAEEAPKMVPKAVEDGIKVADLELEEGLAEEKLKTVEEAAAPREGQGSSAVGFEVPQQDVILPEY

MELK = MELK (Homo sapiens, UniProt Q14680)
Chain of MELK (Q14680 whole entry): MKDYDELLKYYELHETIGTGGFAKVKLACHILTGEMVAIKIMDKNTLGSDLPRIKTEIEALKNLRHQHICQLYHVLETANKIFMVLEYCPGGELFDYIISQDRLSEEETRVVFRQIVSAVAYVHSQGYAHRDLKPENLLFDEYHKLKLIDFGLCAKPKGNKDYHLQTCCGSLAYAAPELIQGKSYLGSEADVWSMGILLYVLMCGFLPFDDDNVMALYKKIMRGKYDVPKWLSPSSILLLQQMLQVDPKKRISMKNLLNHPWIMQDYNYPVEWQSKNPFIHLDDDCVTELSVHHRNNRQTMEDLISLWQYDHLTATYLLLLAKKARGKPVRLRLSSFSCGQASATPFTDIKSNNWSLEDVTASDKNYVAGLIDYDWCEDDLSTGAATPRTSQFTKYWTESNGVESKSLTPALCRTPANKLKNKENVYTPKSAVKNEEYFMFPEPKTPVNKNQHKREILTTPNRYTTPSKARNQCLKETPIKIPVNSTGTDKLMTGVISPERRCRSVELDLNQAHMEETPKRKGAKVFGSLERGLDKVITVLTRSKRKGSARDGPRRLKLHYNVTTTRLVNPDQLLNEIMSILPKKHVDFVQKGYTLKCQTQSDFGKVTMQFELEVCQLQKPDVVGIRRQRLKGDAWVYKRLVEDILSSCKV

FGFR1 = FGFR1 (Homo sapiens, UniProt P11362)
MARK3 = MARK3 (Homo sapiens, UniProt P27448)
EpHA4 = EpHA4 (Homo sapiens, UniProt P54764)
Chain of EpHA4 (P54764 whole entry): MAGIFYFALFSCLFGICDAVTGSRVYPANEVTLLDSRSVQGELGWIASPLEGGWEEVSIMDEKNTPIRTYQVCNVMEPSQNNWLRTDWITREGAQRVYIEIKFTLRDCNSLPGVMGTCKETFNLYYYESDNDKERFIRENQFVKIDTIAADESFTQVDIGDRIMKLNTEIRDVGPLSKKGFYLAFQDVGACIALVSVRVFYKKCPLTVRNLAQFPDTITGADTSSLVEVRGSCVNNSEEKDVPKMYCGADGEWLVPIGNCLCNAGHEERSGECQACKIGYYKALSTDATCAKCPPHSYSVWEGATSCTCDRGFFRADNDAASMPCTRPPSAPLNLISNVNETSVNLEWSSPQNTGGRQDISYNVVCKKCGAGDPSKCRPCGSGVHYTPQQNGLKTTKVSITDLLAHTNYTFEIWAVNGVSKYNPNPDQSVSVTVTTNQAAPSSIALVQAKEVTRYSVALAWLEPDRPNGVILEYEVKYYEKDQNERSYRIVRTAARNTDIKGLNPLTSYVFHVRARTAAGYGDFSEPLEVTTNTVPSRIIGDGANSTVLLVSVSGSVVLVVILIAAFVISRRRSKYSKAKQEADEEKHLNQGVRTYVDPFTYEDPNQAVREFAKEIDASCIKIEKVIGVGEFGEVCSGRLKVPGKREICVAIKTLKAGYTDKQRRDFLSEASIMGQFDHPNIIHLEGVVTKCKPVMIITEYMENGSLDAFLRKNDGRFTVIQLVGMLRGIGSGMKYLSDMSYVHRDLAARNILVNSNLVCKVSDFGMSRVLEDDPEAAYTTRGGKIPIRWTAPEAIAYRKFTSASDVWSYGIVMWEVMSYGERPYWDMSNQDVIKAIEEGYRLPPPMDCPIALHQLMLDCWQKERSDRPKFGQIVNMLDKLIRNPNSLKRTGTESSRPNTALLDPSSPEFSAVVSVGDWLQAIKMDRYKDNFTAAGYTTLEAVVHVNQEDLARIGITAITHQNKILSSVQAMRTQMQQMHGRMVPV

EphB3 = target: T2, EphB3 (Homo sapiens, UniProt P54753)
T2 sequence (P54753 1-998): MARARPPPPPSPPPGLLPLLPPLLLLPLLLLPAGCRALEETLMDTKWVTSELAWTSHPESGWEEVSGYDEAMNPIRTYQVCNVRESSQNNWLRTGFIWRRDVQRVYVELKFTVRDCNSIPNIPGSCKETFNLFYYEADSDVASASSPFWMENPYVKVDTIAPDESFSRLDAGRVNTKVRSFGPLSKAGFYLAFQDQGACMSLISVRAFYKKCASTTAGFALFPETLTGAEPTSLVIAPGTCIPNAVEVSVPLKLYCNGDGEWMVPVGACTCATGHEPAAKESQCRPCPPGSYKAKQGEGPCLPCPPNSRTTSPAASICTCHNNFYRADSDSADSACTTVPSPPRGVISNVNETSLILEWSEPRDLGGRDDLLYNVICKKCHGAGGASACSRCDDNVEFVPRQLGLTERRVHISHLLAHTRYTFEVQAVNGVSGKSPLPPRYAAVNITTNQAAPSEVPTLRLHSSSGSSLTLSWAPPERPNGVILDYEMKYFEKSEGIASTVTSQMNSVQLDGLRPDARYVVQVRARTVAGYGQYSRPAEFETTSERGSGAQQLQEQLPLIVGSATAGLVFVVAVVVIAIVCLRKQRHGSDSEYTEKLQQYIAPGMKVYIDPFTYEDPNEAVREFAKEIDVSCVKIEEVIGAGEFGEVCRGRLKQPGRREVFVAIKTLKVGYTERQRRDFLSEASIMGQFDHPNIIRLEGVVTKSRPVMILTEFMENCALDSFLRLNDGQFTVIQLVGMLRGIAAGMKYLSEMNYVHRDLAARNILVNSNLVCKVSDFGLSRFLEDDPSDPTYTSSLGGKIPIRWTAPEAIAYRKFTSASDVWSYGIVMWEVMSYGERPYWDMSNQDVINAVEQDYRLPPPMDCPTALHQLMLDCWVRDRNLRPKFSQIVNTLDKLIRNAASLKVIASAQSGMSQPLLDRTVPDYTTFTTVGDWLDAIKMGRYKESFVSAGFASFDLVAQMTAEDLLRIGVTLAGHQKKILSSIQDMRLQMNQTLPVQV

Wnk1 = Wnk1 (Homo sapiens, UniProt Q9H4A3)
Chain of Wnk1 (Q9H4A3 whole entry): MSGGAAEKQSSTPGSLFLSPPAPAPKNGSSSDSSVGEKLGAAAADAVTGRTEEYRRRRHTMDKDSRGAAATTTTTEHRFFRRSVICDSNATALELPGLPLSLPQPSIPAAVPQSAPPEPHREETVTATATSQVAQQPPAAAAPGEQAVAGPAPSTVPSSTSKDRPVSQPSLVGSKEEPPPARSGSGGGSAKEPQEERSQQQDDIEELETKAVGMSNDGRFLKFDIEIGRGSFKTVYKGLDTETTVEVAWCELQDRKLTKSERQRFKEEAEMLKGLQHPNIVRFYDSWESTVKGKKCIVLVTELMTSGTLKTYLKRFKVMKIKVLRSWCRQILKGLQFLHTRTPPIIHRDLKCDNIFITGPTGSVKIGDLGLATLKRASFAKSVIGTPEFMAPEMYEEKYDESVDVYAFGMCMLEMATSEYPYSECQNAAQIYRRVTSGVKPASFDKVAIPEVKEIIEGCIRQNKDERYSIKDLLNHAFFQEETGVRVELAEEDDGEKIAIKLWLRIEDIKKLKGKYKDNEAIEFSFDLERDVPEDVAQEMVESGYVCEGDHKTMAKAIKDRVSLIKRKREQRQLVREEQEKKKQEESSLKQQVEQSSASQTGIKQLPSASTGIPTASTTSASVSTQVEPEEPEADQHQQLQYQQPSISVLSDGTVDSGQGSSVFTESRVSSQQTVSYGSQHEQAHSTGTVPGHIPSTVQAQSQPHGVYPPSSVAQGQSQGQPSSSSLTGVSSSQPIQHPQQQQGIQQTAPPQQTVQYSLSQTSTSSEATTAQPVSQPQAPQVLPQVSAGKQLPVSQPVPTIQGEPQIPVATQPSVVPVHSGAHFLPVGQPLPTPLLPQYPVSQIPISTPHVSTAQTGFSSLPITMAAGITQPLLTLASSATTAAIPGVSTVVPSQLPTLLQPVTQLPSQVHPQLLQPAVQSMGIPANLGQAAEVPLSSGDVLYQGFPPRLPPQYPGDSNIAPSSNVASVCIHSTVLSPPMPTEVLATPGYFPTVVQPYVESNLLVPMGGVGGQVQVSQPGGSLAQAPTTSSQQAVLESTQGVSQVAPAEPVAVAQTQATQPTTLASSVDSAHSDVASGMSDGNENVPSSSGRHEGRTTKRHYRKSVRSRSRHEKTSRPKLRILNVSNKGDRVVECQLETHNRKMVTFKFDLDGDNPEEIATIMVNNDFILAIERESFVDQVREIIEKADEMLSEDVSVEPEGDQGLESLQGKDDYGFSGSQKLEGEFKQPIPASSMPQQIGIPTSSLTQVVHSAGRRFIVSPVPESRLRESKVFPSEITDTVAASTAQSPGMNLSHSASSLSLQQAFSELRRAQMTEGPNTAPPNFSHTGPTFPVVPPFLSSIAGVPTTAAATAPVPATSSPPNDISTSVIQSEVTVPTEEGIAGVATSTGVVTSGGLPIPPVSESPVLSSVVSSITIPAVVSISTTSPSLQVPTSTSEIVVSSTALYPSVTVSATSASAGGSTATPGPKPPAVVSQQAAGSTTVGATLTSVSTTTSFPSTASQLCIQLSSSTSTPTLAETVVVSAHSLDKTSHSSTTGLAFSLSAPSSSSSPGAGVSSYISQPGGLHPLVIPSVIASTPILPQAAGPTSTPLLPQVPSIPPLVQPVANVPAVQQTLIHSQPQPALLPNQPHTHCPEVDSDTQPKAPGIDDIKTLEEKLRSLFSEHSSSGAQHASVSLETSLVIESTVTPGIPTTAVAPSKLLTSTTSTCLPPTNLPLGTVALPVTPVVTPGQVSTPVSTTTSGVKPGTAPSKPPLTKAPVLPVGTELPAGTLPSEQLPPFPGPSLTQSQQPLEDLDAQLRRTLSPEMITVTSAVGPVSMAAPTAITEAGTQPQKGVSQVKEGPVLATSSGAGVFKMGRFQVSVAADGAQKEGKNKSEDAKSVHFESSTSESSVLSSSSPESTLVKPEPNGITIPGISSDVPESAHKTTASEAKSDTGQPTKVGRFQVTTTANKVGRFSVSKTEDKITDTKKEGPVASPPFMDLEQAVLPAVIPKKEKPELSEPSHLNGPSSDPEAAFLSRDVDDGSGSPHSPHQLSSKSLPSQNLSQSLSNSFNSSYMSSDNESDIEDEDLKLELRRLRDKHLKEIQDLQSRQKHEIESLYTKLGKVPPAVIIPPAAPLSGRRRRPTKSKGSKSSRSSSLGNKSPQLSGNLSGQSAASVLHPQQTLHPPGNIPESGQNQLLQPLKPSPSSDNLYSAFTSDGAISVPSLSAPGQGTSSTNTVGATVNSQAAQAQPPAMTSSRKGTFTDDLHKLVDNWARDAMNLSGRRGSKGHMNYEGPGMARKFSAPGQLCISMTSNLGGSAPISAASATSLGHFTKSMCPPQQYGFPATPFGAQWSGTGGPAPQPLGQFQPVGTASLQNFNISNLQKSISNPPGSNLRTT

MST1 = target: T3, MST1 (Homo sapiens, UniProt Q13043)
T3 sequence (Q13043 1-487): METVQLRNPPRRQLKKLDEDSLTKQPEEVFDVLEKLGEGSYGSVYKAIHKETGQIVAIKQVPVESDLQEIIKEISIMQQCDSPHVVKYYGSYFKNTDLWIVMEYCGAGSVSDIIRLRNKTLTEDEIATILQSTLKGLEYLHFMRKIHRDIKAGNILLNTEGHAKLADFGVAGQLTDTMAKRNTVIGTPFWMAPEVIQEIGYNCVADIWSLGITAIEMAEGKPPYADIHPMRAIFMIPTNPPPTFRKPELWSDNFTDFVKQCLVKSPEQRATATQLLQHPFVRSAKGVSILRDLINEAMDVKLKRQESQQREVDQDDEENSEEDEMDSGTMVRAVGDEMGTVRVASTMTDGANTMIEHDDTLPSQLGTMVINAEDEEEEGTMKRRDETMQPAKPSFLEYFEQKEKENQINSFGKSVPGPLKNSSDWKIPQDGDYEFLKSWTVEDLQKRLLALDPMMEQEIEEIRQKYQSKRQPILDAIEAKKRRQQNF

Chain of JNK3 (P53779 whole entry): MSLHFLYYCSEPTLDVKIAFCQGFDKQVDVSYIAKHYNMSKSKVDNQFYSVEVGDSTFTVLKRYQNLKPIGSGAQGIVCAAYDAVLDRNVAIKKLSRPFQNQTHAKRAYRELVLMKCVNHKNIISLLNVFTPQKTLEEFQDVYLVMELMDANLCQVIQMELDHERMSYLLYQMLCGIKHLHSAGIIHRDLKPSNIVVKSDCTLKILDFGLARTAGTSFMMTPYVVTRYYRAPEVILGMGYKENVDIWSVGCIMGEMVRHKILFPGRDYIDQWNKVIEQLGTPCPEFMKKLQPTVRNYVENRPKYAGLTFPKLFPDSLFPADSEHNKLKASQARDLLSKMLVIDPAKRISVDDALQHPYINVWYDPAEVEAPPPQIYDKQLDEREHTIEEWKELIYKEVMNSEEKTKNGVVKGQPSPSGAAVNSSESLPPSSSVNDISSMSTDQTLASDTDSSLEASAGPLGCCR
Chain of OSR1 (O95747 whole entry): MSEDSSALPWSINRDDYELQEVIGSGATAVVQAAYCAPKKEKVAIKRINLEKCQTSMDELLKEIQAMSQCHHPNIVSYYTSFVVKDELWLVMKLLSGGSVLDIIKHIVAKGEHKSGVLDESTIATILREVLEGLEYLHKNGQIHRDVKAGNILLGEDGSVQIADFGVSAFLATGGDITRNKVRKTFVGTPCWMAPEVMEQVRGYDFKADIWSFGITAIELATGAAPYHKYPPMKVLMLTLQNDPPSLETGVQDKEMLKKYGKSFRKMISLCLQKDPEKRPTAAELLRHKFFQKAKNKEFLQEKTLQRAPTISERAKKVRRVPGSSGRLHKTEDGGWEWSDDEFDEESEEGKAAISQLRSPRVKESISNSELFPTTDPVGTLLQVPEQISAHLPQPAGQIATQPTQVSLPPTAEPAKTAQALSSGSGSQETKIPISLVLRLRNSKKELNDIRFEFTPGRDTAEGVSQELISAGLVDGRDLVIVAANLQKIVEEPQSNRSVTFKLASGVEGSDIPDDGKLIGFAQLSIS

ΔTm at 10 µM (STLK3; read-out: dTm 10): 0.3 °C | ΔTm at 10 µM (OSR1; read-out: dTm 10): -0.2 °C | ΔTm at 10 µM (JNK3; read-out: dTm 10): 1.3 °C | ΔTm at 10 µM (CaMK4; read-out: dTm 10): 0.1 °C | ΔTm at 10 µM (MELK; read-out: dTm 10): 4.3 °C | ΔTm at 10 µM (FGFR1; read-out: dTm 10): 2.9 °C | ΔTm at 10 µM (MARK3; read-out: dTm 10): 3.7 °C | ΔTm at 10 µM (EpHA4; read-out: dTm 10): 5.1 °C | ΔTm at 10 µM (EphB3; read-out: dTm 10): 4.6 °C
Compound: CNc1ncc2cc(-c3cc(Cl)ccc3Br)c(=O)n(CCCCN)c2n1 [compound 10, 8-(4-Aminobutyl)-6-(2-bromo-5-chlorophenyl)-2-(methylamino)pyrido[2,3-d]pyrimidin-7(8H)-one]

ΔTm at 10 µM (STLK3; read-out: dTm 8): 0.2 °C | ΔTm at 10 µM (OSR1; read-out: dTm 8): 0.3 °C | ΔTm at 10 µM (JNK3; read-out: dTm 8): 0.8 °C | ΔTm at 10 µM (CaMK4; read-out: dTm 8): 0.1 °C | ΔTm at 10 µM (MELK; read-out: dTm 8): 4.6 °C | ΔTm at 10 µM (FGFR1; read-out: dTm 8): 3.3 °C | ΔTm at 10 µM (MARK3; read-out: dTm 8): 2.7 °C | ΔTm at 10 µM (EpHA4; read-out: dTm 8): 4.7 °C | ΔTm at 10 µM (EphB3; read-out: dTm 8): 4.1 °C
Compound: CNc1ncc2cc(-c3cc(Cl)ccc3Cl)c(=O)n(CCCCN)c2n1 [compound 8, 8-(4-Aminobutyl)-6-(2,5-dichlorophenyl)-2-(methylamino)pyrido[2,3-d]pyrimidin-7(8H)-one]

ΔTm at 10 µM (Wnk1; read-out: ∆Tm MR22 (5)): -0.1 °C | ΔTm at 10 µM (MST1; read-out: ∆Tm MR22 (5)): -0.3 °C
Compound: CNc1ncc2cc(-c3cc(F)ccc3F)c(=O)n(CCCCN)c2n1 [compound 5, 8-(4-Aminobutyl)-6-(2,5-difluorophenyl)-2-(methylamino)pyrido[2,3-d]pyrimidin-7(8H)-one]

The remaining lines, values behind:

Compound: CNc1ncc2cc(-c3ccc(-c4cccc(C)n4)cc3Cl)c(=O)n(CC3OCC(N)CO3)c2n1 (centres unmarked) [compound 2, G-5555]
∆Tm G-5555 (2) (Wnk1; 10 µM, binder): 2.4 degC | ∆Tm G-5555 (2) (MST1; 10 µM, binder): 4.5 degC

Compound: CNc1ncc2cc(-c3cc(Br)ccc3Cl)c(=O)n(CCCCN)c2n1 [compound 6, 8-(4-Aminobutyl)-6-(5-bromo-2-chlorophenyl)-2-(methylamino)pyrido[2,3-d]pyrimidin-7(8H)-one]
ΔTm at 10 µM (Wnk1; read-out: ∆Tm 6): 0 °C

Compound: CNc1ncc2cc(-c3ccccc3Cl)c(=O)n(CCCCN)c2n1 [compound 4, 8-(4-Aminobutyl)-6-(2-chlorophenyl)-2-(methylamino)pyrido[2,3-d]pyrimidin-7(8H)-one]
ΔTm at 10 µM (Wnk1; read-out: ∆Tm MR21 (4)): -0.4 °C | ΔTm at 10 µM (MST1; read-out: ∆Tm MR21 (4)): 1.5 °C

Compound: CNc1ncc2cc(-c3cc(C(F)(F)F)ccc3Cl)c(=O)n(CCCCN)c2n1 [compound 9, 8-(4-Aminobutyl)-6-(2-chloro-5-(trifluoromethyl)phenyl)-2-(methylamino)pyrido[2,3-d]pyrimidin-7(8H)-one]
ΔTm at 10 µM (STLK3; read-out: dTm 9): 0.3 °C | ΔTm at 10 µM (OSR1; read-out: dTm 9): 0.3 °C | ΔTm at 10 µM (JNK3; read-out: dTm 9): 1.3 °C | ΔTm at 10 µM (CaMK4; read-out: dTm 9): 0.1 °C | ΔTm at 10 µM (MELK; read-out: dTm 9): 1.6 °C | ΔTm at 10 µM (FGFR1; read-out: dTm 9): 1.2 °C | ΔTm at 10 µM (MARK3; read-out: dTm 9): 0.7 °C | ΔTm at 10 µM (EpHA4; read-out: dTm 9): 2.9 °C | ΔTm at 10 µM (EphB3; read-out: dTm 9): 2.3 °C

Compound: CNc1ncc2cc(-c3cc(Br)ccc3Cl)c(=O)n(C[C@H]3OC[C@H](N)CO3)c2n1 [compound 7, 8-(((2r,5r)-5-Amino-1,3-dioxan-2-yl)methyl)-6-(5-bromo-2-chlorophenyl)-2-(methylamino)pyrido[2,3-d]pyrimidin-7(8H)-one]
ΔTm at 10 µM (Wnk1; read-out: ∆Tm 7): 1.1 °C

Compound: CNc1ncc2cc(-c3cc(Br)ccc3Br)c(=O)n(CCCCN)c2n1 [compound 11, 8-(4-Aminobutyl)-6-(2,5-dibromophenyl)-2-(methylamino)pyrido[2,3-d]pyrimidin-7(8H)-one]
ΔTm at 10 µM (STLK3; read-out: dTm 11): 0.3 °C | ΔTm at 10 µM (OSR1; read-out: dTm 11): 0.4 °C | ΔTm at 10 µM (JNK3; read-out: dTm 11): 1.1 °C | ΔTm at 10 µM (CaMK4; read-out: dTm 11): 0.1 °C | ΔTm at 10 µM (MELK; read-out: dTm 11): 4.2 °C | ΔTm at 10 µM (FGFR1; read-out: dTm 11): 3 °C | ΔTm at 10 µM (MARK3; read-out: dTm 11): 3.6 °C | ΔTm at 10 µM (EpHA4; read-out: dTm 11): 4.3 °C | ΔTm at 10 µM (EphB3; read-out: dTm 11): 3 °C

Compound: CNc1ncc2cc(-c3cc(F)c(-c4cccc(C)n4)cc3F)c(=O)n(CCCCN)c2n1 [compound 12, 8-(4-Aminobutyl)-6-(2,5-difluoro-4-(6-methylpyridin-2-yl)phenyl)-2-(methylamino)pyrido[2,3-d]pyrimidin-7(8H)-one]
ΔTm at 10 µM (STLK3; read-out: dTm 12): 12.1 °C | ΔTm at 10 µM (OSR1; read-out: dTm 12): -0.2 °C | ΔTm at 10 µM (JNK3; read-out: dTm 12): 0.4 °C | ΔTm at 10 µM (CaMK4; read-out: dTm 12): 2.9 °C | ΔTm at 10 µM (MELK; read-out: dTm 12): 6.1 °C | ΔTm at 10 µM (FGFR1; read-out: dTm 12): 0.6 °C | ΔTm at 10 µM (MARK3; read-out: dTm 12): 5.3 °C | ΔTm at 10 µM (EpHA4; read-out: dTm 12): 1.6 °C | ΔTm at 10 µM (EphB3; read-out: dTm 12): 2.5 °C
